In US20260200884A1, “COMPOUND FOR TREATING GOUT OR HYPERURICEMIA” (Arthrosi Therapeutics, Inc., priority 2019, published 2026):

Key:
[1] = cited from earlier work
[2] = Solubility of the test article in HBSS assay buffer; type: physicochemical; conditions: all tested concentrations 0.01-10 μM; highest tested concentration 10 μM
Description: Before the experiment, the medium was removed and the cells were washed twice with 100 μL of HBSS without Cl^−. Uptake experiments were carried out at 37±1° C. in 50 μL of HBSS without Cl^−, pH 7.4 containing the probe substrate (20 μM uric acid) and the test article (TA) or solvent.
Results: Compound 1 was soluble in HBSS buffer at all tested concentrations; the highest tested concentration being 10 μM.

Structure (SMILES) | serum uric acid (sUA) level reached ([1]; chronic therapy, patients) | hepatotoxicity ([1]; in certain patients) | solubility in HBSS buffer [2]
CCc1oc2ccccc2c1C(=O)c1cc(Br)c(O)c(Br)c1 [Benzbromarone] | < 6 mg/dL | associated with hepatotoxicity | –
[2H]c1c(O)c([2H])c2oc(C(C)O)c(C(=O)c3cc(Br)c(O)c(Br)c3)c2c1[2H] (stereo not drawn) [Compound 1, (3,5-dibromo-4-hydroxyphenyl)(6-hydroxy-2-(1-hydroxyethyl)benzofuran-3-yl-4,5,7-d3)methanone] | – | – | soluble
